From ChEMBL document CHEMBL5321210, “N-adamantyl-anthranil amide derivatives: New selective ligands for the cannabinoid receptor subtype 2 (CB2R)” (Eur J Med Chem, 2023)
Activity calls are given as the source filed them. The rule behind the calls is not given here.

Tests used:
[1] = molecular target: T1, Cannabinoid receptor 2 (Homo sapiens, UniProt P34972); test: Agonist activity at human CB2 receptor expressed in CHO-K1 cells assessed as inhibition of NKH-477 induced cAMP production incubated for 30 mins by luminescence based analysis; type: functional, cell-based
T1 sequence (P34972 whole entry): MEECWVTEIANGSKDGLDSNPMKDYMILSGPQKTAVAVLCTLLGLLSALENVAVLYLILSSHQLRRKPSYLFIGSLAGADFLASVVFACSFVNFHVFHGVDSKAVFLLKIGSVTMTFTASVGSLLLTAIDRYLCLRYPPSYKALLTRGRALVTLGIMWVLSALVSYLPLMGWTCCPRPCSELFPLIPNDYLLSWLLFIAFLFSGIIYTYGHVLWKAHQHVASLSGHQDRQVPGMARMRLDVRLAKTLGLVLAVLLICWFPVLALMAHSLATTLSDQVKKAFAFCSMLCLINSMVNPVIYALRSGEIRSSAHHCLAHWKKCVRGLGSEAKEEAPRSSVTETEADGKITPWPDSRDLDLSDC

[2] = tested on: THP-1; test: Antiinflammatory activity in human THP-1 monocytes assessed as decrease in IL-1beta production incubated for 24 hrs by ELISA coupled qRT-PCR analysis; type: functional, cell-based; settings: dose 1-10 µM
[3] = molecular target: T1, Cannabinoid receptor 2; test: Displacement of [3H]-CP55940 from human CB2 receptor expressed in HEK293 cell membrane assessed as inhibition constant incubated for 90 mins by radioligand competition binding assay; type: cell membranes
[4] = tested on: THP-1; test: Antiinflammatory activity in PMA-differentiated human THP-1 macrophages assessed as reduction in IFN-gamma production at 1 to 10 uM incubated for 24 hrs by ELISA coupled qRT-PCR analysis relative to control; type: functional; set-up: scale not given: the % may be the effect or the level left; settings: dose 1-10 µM
[5] = tested on: THP-1; test: Antiinflammatory activity in LPS-activated PMA-differentiated human THP-1 macrophages assessed as decrease in TNF-alpha production at 1 to 10 uM incubated for 24 hrs in the presence of JTE907 by ELISA coupled qRT-PCR analysis; type: functional, cell-based; settings: dose 1-10 µM
[6] = tested on: THP-1; test: Antiinflammatory activity against LPS-activated PMA-differentiated human THP-1 macrophages assessed as decrease in IFN-gamma production at 1 to 10 uM incubated for 24 hrs by ELISA coupled qRT-PCR analysis relative to control; type: functional; set-up: scale not given: the % may be the effect or the level left; settings: dose 1-10 µM
[7] = tested on: THP-1; test: Antiinflammatory against LPS-activated human THP-1 monocytes assessed as decrease in IL-1beta production at 1 to 10 uM incubated for 24 hrs in the presence of JTE907 by ELISA coupled qRT-PCR analysis; type: functional, cell-based; settings: dose 1-10 µM
[8] = tested on: THP-1; test: Antiinflammatory activity against LPS-activated PMA-differentiated human THP-1 macrophages assessed as decrease in TNF-alpha production at 1 to 10 uM incubated for 24 hrs by ELISA coupled qRT-PCR analysis relative to control; type: functional; set-up: scale not given: the % may be the effect or the level left; settings: dose 1-10 µM
[9] = tested on: THP-1; test: Antiinflammatory against LPS-activated human THP-1 monocytes assessed as decrease in IL-6 production at 1 to 10 uM incubated for 24 hrs in the presence of JTE907 by ELISA coupled qRT-PCR analysis; type: functional, cell-based; settings: dose 1-10 µM
[10] = tested on: THP-1; test: Antiinflammatory against LPS-activated human THP-1 monocytes assessed as increase in IL-4 production at 1 to 10 uM incubated for 24 hrs in the presence of JTE907 by ELISA coupled qRT-PCR analysis; type: functional, cell-based; settings: dose 1-10 µM
[11] = tested on: THP-1; test: Antiinflammatory activity against LPS-activated PMA-differentiated human THP-1 macrophages assessed as decrease in IL-1beta production at 1 to 10 uM incubated for 24 hrs by ELISA coupled qRT-PCR analysis relative to control; type: functional; set-up: scale not given: the % may be the effect or the level left; settings: dose 1-10 µM
[12] = tested on: THP-1; test: Antiinflammatory activity in human THP-1 monocytes assessed as decrease in IL-1beta production at 1 to 10 uM incubated for 24 hrs in the presence of JTE907 by ELISA coupled qRT-PCR analysis; type: functional, cell-based; settings: dose 1-10 µM
[13] = tested on: THP-1; test: Antiinflammatory activity in LPS-activated PMA-differentiated human THP-1 macrophages assessed as decrease in IL-1beta production at 1 to 10 uM incubated for 24 hrs in the presence of JTE907 by ELISA coupled qRT-PCR analysis; type: functional, cell-based; settings: dose 1-10 µM
[14] = tested on: THP-1; test: Antiinflammatory activity in LPS-activated PMA-differentiated human THP-1 macrophages assessed as increase in IL-4 production at 10 uM incubated for 24 hrs in the presence of JTE907 by ELISA coupled qRT-PCR analysis; type: functional, cell-based
[15] = tested on: THP-1; test: Antiinflammatory activity against LPS-activated PMA-differentiated human THP-1 macrophages assessed as decrease in IL-6 production at 10 uM incubated for 24 hrs by ELISA coupled qRT-PCR analysis relative to control; type: functional; set-up: scale not given: the % may be the effect or the level left
[16] = tested on: THP-1; test: Antiinflammatory activity in human THP-1 monocytes assessed as decrease in TNF-alpha production at 10 uM incubated for 24 hrs in the presence of N-(adamantan-1-yl)-4-(pentylamino)-[1,1'-biphenyl]-3-carboxamide by ELISA coupled qRT-PCR analysis; type: functional, cell-based
[17] = tested on: THP-1; test: Antiinflammatory against LPS-activated human THP-1 monocytes assessed as increase in IL-10 production at 10 uM incubated for 24 hrs in the presence of JTE907 by ELISA coupled qRT-PCR analysis; type: functional, cell-based
[18] = tested on: THP-1; test: Antiinflammatory activity in LPS-activated PMA-differentiated human THP-1 macrophages assessed as decrease in IFN-gamma production at 10 uM incubated for 24 hrs in the presence of JTE907 by ELISA coupled qRT-PCR analysis; type: functional, cell-based
[19] = tested on: THP-1; test: Antiinflammatory activity in PMA-differentiated human THP-1 macrophages assessed as decrease in IL-1beta production at 10 uM incubated for 24 hrs in the presence of JTE907 by ELISA coupled qRT-PCR analysis; type: functional, cell-based
[20] = tested on: THP-1; test: Antiinflammatory activity in PMA-differentiated human THP-1 monocytes assessed as increase in IL-10 production at 10 uM incubated for 24 hrs in the presence of N-(adamantan-1-yl)-4-(pentylamino)-[1,1'-biphenyl]-3-carboxamide by ELISA coupled qRT-PCR analysis; type: functional, cell-based
[21] = tested on: THP-1; test: Antiinflammatory activity against LPS-activated human THP-1 monocytes assessed as increase in IL-10 production at 10 uM incubated for 24 hrs in the presence of N-(adamantan-1-yl)-4-(pentylamino)-[1,1'-biphenyl]-3-carboxamide by ELISA coupled qRT-PCR analysis; type: functional, cell-based
[22] = tested on: THP-1; test: Antiinflammatory activity against LPS-activated PMA-differentiated human THP-1 monocytes assessed as increase in IL-10 production at 10 uM incubated for 24 hrs in the presence of N-(adamantan-1-yl)-4-(pentylamino)-[1,1'-biphenyl]-3-carboxamide by ELISA coupled qRT-PCR analysis; type: functional, cell-based
[23] = tested on: THP-1; test: Antiinflammatory activity against LPS-activated human THP-1 monocytes assessed as decrease in IFN-gamma production at 10 uM incubated for 24 hrs in the presence of N-(adamantan-1-yl)-4-(pentylamino)-[1,1'-biphenyl]-3-carboxamide by ELISA coupled qRT-PCR analysis; type: functional, cell-based
[24] = tested on: THP-1; test: Antiinflammatory activity in PMA-differentiated human THP-1 macrophages assessed as reduction in TNF-alpha production at 10 uM incubated for 24 hrs by ELISA coupled qRT-PCR analysis relative to control; type: functional; set-up: scale not given: the % may be the effect or the level left
[25] = tested on: THP-1; test: Antiinflammatory activity in PMA-differentiated human THP-1 macrophages assessed as reduction in IL-6 production at 10 uM incubated for 24 hrs by ELISA coupled qRT-PCR analysis relative to control; type: functional; set-up: scale not given: the % may be the effect or the level left
[26] = tested on: THP-1; test: Antiinflammatory activity in human THP-1 monocytes assessed as increase in IL-10 production at 10 uM incubated for 24 hrs in the presence of JTE907 by ELISA coupled qRT-PCR analysis; type: functional, cell-based
[27] = tested on: THP-1; test: Antiinflammatory activity in human THP-1 monocytes assessed as decrease in IFN-gamma production at 10 uM incubated for 24 hrs in the presence of JTE907 by ELISA coupled qRT-PCR analysis; type: functional, cell-based
[28] = tested on: THP-1; test: Antiinflammatory activity in PMA-differentiated human THP-1 macrophages assessed as increase in IL-4 production at 10 uM incubated for 24 hrs in the presence of JTE907 by ELISA coupled qRT-PCR analysis; type: functional, cell-based

CCCCCNc1ccccc1C(=O)NC12CC3CC(CC(C3)C1)C2
EC50 [1]: 560 nM
Activity [2]: Dose-Dependent Effect
Ki [3]: 55.7 nM
Activity [4]: 50%
Activity [5]: inactive
Activity [6]: 70%
Activity [7]: inactive
Activity [8]: 70%
Activity [9]: inactive
Activity [10]: inactive
Activity [11]: 70%
Activity [12]: inactive
Activity [13]: inactive

O=C(NC1CCCCC1)c1cn(CCN2CCOCC2)c2cc(Cl)ccc2c1=O
Activity [14]: inactive
Activity [15]: 70%
Activity [16]: inactive
Activity [17]: inactive
Activity [18]: inactive
Activity [19]: inactive
Activity [20]: inactive
Activity [21]: inactive
Activity [22]: inactive
Activity [23]: inactive
Activity [24]: 50%
Activity [25]: 50%
Activity [26]: inactive
Activity [27]: inactive
Activity [28]: inactive
